What was measured:
[1] = Log D shake flask method (octanol / PBS pH 7.4, HPLC); format: physicochemical; conditions: octanol/phosphate-buffered saline (PBS); octanol / PBS pH 7.4, shake flask
Experimental: In order to classify the inventive compounds according to their lipophilicity, Log D values (distribution coefficient) were determined by means of the well-established shake flask method, measuring the partition of a compound between an octanol and phosphate-buffered saline (PBS, pH 7.4) by HPLC.

[2] = target: T1, recombinant human transglutaminase 2 (Homo sapiens, UniProt P21980); assay: Transglutaminase assay (dansylcadaverine incorporation into dimethylcasein, DCC-assay); format: biochemical; conditions: recombinant human TG2 10 nM, dansylcadaverine/dimethylcasein, 37° C.
T1 construct: purchased Zedira T022
T1 sequence (P21980 1-687): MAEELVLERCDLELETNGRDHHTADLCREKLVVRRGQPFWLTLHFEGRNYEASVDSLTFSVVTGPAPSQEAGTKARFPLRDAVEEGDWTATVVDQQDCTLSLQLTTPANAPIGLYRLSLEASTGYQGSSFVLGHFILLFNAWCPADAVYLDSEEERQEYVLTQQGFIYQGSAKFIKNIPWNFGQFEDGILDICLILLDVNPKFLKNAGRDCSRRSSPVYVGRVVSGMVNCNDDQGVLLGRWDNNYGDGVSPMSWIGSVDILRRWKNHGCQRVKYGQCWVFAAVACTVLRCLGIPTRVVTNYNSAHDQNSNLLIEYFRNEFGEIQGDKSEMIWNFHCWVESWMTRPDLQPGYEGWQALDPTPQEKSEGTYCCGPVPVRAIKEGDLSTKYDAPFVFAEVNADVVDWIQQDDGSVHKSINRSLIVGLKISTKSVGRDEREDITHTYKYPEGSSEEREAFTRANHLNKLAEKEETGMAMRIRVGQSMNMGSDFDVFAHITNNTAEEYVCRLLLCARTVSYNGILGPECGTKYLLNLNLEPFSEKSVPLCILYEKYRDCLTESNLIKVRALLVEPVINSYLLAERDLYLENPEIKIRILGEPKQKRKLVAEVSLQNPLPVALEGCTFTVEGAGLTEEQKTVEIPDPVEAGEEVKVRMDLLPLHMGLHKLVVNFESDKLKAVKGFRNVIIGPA
Experimental: For the determination of potency of inhibitors against tissue transglutaminase, the incorporation of dansylcadaverine into dimethylcasein (Zedira product T036, Lorand et al., Anal Biochem, 1971, 44:221-31) was measured using recombinant human transglutaminase 2 (Zedira Product T022).
The tissue transglutaminase is diluted in buffer (50 mM Tris-HCl, 7.5 mM CaCl2, 150 mM NaCl, pH=7.4). The final concentration of TG2 in the assay is 10 nM.
A 10 mM inhibitor stock solution is prepared in DMSO, and from this a serial 1:2-fold dilution series is prepared also in DMSO. Each of the initial dilutions is subsequently diluted 1:50-fold with buffer (50 mM Tris-HCl, 7.5 mM CaCl2, 150 mM NaCl, pH=7.4) to yield the final working dilutions containing 2% (v/v) DMSO.
15 μl of inhibitor working dilution are added per well of a 96 well microtiter plate. As control, 15 μl of a 2% (v/v) DMSO solution prepared using the buffer mentioned above are added per well.
Immediately before starting the assay, 600 μl transglutaminase working solution are added to 11.4 ml assay buffer (50 mM Tris-HCl, 10 mM CaCl2, 10 mM glutathione, 2.5% glycerol, 16.7 μM dansylcadaverine, 4 μM N,N-dimethylcasein, 200 mM NaCl, pH=8.0). 285 μl of this reaction mix are added per well containing the inhibitor.
Increase in fluorescence is measured using λex=330 nm and λem=500 nm at 37° C. for 30 min. A slope of the increase in fluorescence between 20 and 30 min is calculated for determination of the IC50 value (inhibitor concentration at which 50% of the initial activity is blocked).
Analysis of enzymatic activity is performed by calculation of the slope of an increase in fluorescence intensity. IC50 values are calculated by plotting the enzymatic activity (as percentage from control containing 2% DMSO instead of inhibitor) against the inhibitor concentration. IC50 is defined as the inhibitor concentration blocking 50% of initial enzyme activity.

[3] = Caco-2 permeability assay (CacoReady kit); format: in vitro ADME; conditions: human
Experimental: Permeability coefficients (Papp values) were obtained from Caco-2 barrier studies predicting oral/intestinal bioavailability of the tested compounds. The assays were performed by using CacoReady™ ready-to-use kits from ReadyCell according to the manufacturers protocol.

With COC(=O)/C=C/CC[C@H](NC(=O)C1Cc2ccccc2C1)C(=O)Nc1cccn(CC(=O)NC2C3CC4CC(C3)CC2C4)c1=O (stereo partly drawn) [III-12, (S,E)-methyl 6-(2,3-dihydro-1H-indene-2-carboxamido)-7-(1-(2-(2-adamantylamino)-2-oxoethyl)-2-oxo-1,2-dihydropyridin-3-ylamino)-7-oxohept-2-enoate] the logD [1] was 3 to 5, the IC50 [2] was < 0.025 µM and the Papp [3] was 10 to 100 nm/s.

In the case of COC(=O)/C=C/CC[C@H](NC(=O)c1oc2ccccc2c1C)C(=O)Nc1cccn(CC(=O)NC2C3CC4CC2CC(Br)(C4)C3)c1=O (stereo partly drawn) [III-41, (S,E)-methyl 7-(1-(2-(5-bromoadamantan-2-amino)-2-oxoethyl)-2-oxo-1,2-dihydropyridin-3-ylamino)-6-(3-methylbenzofuran-2-carboxamido)-7-oxohept-2-enoate], the logD [1] is reported as 3 to 5, the IC50 [2] is reported as < 0.025 µM and the Papp [3] is reported as 10 to 100 nm/s.

In the case of COC(=O)/C=C/CC[C@H](NC(=O)c1nncs1)C(=O)Nc1cccn(CC(=O)NC23CC(C2)C3)c1=O [III-171, (S,E)-methyl 7-(1-(2-(bicyclo[1.1.1]pentan-1-ylamino)-2-oxoethyl)-2-oxo-1,2-dihydropyridin-3-ylamino)-7-oxo-6-(1,3,4-thiadiazole-2-carboxamido)hept-2-enoate], the logD [1] is reported as < 1, the IC50 [2] is reported as 0.025 to 0.25 µM and the Papp [3] is reported as < 10 nm/s.

In the case of COC(=O)/C=C/CC[C@H](NC(=O)c1cncn1C)C(=O)Nc1cccn(CC23CC4CC(CC(C4)C2)C3)c1=O [III-78, (S,E)-methyl 7-(1-(1-adamantylmethyl)-2-oxo-1,2-dihydropyridin-3-ylamino)-6-(1-methyl-1H-imidazole-5-carboxamido)-7-oxohept-2-enoate], the logD [1] is reported as 3 to 5, the IC50 [2] is reported as 0.25 to 1.5 µM and the Papp [3] is reported as < 10 nm/s.

Molecule COC(=O)/C=C/CC[C@H](NC(=O)c1oc2ccccc2c1C)C(=O)Nc1cccn(CC(=O)NC23CC4CC(C2)C(F)(F)C(C4)C3)c1=O [III-55, (S,E)-methyl 7-(1-(2-(4,4-difluoroadamantan-1-amino)-2-oxoethyl)-2-oxo-1,2-dihydropyridin-3-ylamino)-6-(3-methylbenzofuran-2-carboxamido)-7-oxohept-2-enoate] has a logD [1] of 3 to 5, an IC50 [2] of 0.025 to 0.25 µM and a Papp [3] of 10 to 100 nm/s.

With O=C(/C=C/CC[C@H](NC(=O)c1cnc2ccc(OC(F)(F)F)cc2c1O)C(=O)Nc1cccn(CC(=O)NC23CC(C2)C3)c1=O)NC1CC1 [III-144, (S,E)-N7-(1-(2-(bicyclo[1.1.1]pentan-1-ylamino)-2-oxoethyl)-2-oxo-1,2-dihydropyridin-3-yl)-N1-cyclopropyl-6-(4-hydroxy-6-(trifluoromethoxy)quinoline-3-carboxamido)hept-2-enediamide] the logD [1] was 3 to 5, the IC50 [2] was 0.25 to 1.5 µM and the Papp [3] was < 10 nm/s.

With COC(=O)/C=C/CC[C@H](NC(=O)c1ccn(C)n1)C(=O)Nc1cccn(CC(=O)NC2C3CC4CC(C3)CC2C4)c1=O (stereo partly drawn) [III-129, (S,E)-methyl 7-(1-(2-(2-adamantylamino)-2-oxoethyl)-2-oxo-1,2-dihydropyridin-3-ylamino)-6-(1-methyl-1H-pyrazole-3-carboxamido)-7-oxohept-2-enoate] the logD [1] was 1 to 3, the IC50 [2] was 0.025 to 0.25 µM and the Papp [3] was < 10 nm/s.

In the case of COC(=O)/C=C/CC[C@H](NC(=O)c1cc(Cl)sc1Cl)C(=O)Nc1cccn(CC(=O)N[C@@H]2C[C@@H]3CC[C@H]2C3)c1=O [III-126, (S,E)-methyl 7-(1-(2-((1S,2R,4R)-bicyclo[2.2.1]heptan-2-ylamino)-2-oxoethyl)-2-oxo-1,2-dihydropyridin-3-ylamino)-6-(2,5-dichlorothiophene-3-carboxamido)-7-oxohept-2-enoate], the logD [1] is reported as 3 to 5, the IC50 [2] is reported as < 0.025 µM and the Papp [3] is reported as 10 to 100 nm/s.

For COC(=O)/C=C/CC[C@H](NC(=O)c1cc(C(=O)OC)cc([N+](=O)[O-])c1)C(=O)Nc1cccn(CC(=O)NC2C3CC4CC(C3)CC2C4)c1=O (stereo partly drawn) [III-33, (S,E)-methyl 3-(1-(1-(2-(2-adamantylamino)-2-oxoethyl)-2-oxo-1,2-dihydropyridin-3-ylamino)-7-methoxy-1,7-dioxohept-5-en-2-ylcarbamoyl)-5-nitrobenzoate], the logD [1] was 3 to 5, the IC50 [2] was < 0.025 µM and the Papp [3] was < 10 nm/s.

In the case of COC(=O)/C=C/CC[C@H](NC(=O)c1oc2ccccc2c1C)C(=O)Nc1cccn(CC(=O)NC23CCC(CC2)C3)c1=O [III-64, (S,E)-methyl 7-(1-(2-(bicyclo[2.2.1]heptan-1-ylamino)-2-oxoethyl)-2-oxo-1,2-dihydropyridin-3-ylamino)-6-(3-methylbenzofuran-2-carboxamido)-7-oxohept-2-enoate], the logD [1] is reported as 1 to 3, the IC50 [2] is reported as < 0.025 µM and the Papp [3] is reported as 10 to 100 nm/s.

In the case of COC(=O)/C=C/CC[C@H](NC(=O)c1oc2ccccc2c1C)C(=O)Nc1cccn(CC(=O)NC2C3CC4CC(C3)CC2C4)c1=O (stereo partly drawn) [III-2, (S,E)-methyl 7-(1-(2-(2-adamantylamino)-2-oxoethyl)-2-oxo-1,2-dihydropyridin-3-ylamino)-6-(3-methylbenzofuran-2-carboxamido)-7-oxohept-2-enoate], the logD [1] is reported as 3 to 5, the IC50 [2] is reported as < 0.025 µM and the Papp [3] is reported as 10 to 100 nm/s.

With COC(=O)/C=C/CC[C@H](NC(=O)c1snnc1C)C(=O)Nc1cccn(CC(=O)NC23CC4CC(C)(CC(C)(C4)C2)C3)c1=O [III-112, (S,E)-methyl 7-(1-(2-(3,5-dimethyladamantane-1-amino)-2-oxoethyl)-2-oxo-1,2-dihydropyridin-3-ylamino)-6-(4-methyl-1,2,3-thiadiazole-5-carboxamido)-7-oxohept-2-enoate] the logD [1] was 1 to 3, the IC50 [2] was < 0.025 µM and the Papp [3] was < 10 nm/s.

For COC(=O)/C=C/CC[C@H](NC(=O)c1oc2ccccc2c1C)C(=O)Nc1cccn(CC(=O)NC2(C(=O)OC)C3CC4CC(C3)CC2C4)c1=O (stereo partly drawn) [III-44, (S,E)-methyl 7-(1-(2-(2-methyladamantane-2-carboxylate-2-amino)-2-oxoethyl)-2-oxo-1,2-dihydropyridin-3-ylamino)-6-(3-methylbenzofuran-2-carboxamido)-7-oxohept-2-enoate], the logD [1] was 3 to 5, the IC50 [2] was 0.025 to 0.25 µM and the Papp [3] was < 10 nm/s.

In the case of COC(=O)/C=C/CC[C@H](NC(=O)c1[nH]c2ccccc2c1C)C(=O)Nc1cccn(CC(=O)NC2C3CC4CC(C3)CC2C4)c1=O (stereo partly drawn) [III-10, (S,E)-methyl 7-(1-(2-(2-adamantylamino)-2-oxoethyl)-2-oxo-1,2-dihydropyridin-3-ylamino)-6-(3-methyl-1H-indole-2-carboxamido)-7-oxohept-2-enoate], the logD [1] is reported as 3 to 5, the IC50 [2] is reported as < 0.025 µM and the Papp [3] is reported as 10 to 100 nm/s.

For COC(=O)/C=C/CC[C@H](NC(=O)c1nc2ccccc2[nH]1)C(=O)Nc1cccn(CC(=O)NC2C3CC4CC(C3)CC2C4)c1=O (stereo partly drawn) [III-11, (S,E)-methyl 6-(1H-benzo[d]imidazole-2-carboxamido)-7-(1-(2-(2-adamantylamino)-2-oxoethyl)-2-oxo-1,2-dihydropyridin-3-ylamino)-7-oxohept-2-enoate], the logD [1] was 3 to 5, the IC50 [2] was 0.025 to 0.25 µM and the Papp [3] was < 10 nm/s.

For Cc1c(C(=O)N[C@@H](CC/C=C/C(=O)N(C)C)C(=O)Nc2cccn(CC(=O)NC34CC5CC(C)(CC(C)(C5)C3)C4)c2=O)oc2ccccc12 [III-77, (S,E)-N^7-(1-(2-(3,5-dimethyladamantan-1-amino)-2-oxoethyl)-2-oxo-1,2-dihydropyridin-3-yl)-N^1,N^1-dimethyl-6-(3-methylbenzofuran-2-carboxamido)hept-2-enediamide], the logD [1] was 3 to 5, the IC50 [2] was 0.025 to 0.25 µM and the Papp [3] was 10 to 100 nm/s.

— patent US20240317708A1, “INHIBITORS OF TRANSGLUTAMINASES” (ZEDIRA GMBH, priority 2021, published 2024)
